Experiments:
[1] = Stability of injected doses after formulation; assay type: physicochemical; conditions: at 2 hr after formulation
Method: (§1) ^68Ga labeling: To 15 nmole ligand 4 (1 mg/mL DMSO) were added 20 μL of 2.0 N NaOAc, 500 μL ^68Ga-solution (2.25 mCi). The reaction was heated in a heating block at 90° C. for 10 minutes in a 3 mL closed vial. After cooling, the sample was analyzed by HPLC (HPLC: Eclise XDB C18 150×4.6 mm, gradient, 2 mL/min; A: 0.1% TFA in water; B: 0.1% TFA in ACN: 0-2 min 100% A; 2-4 min: from 0% to 100% B; 4-9 min: 100% B; 9-10 min: from 100% to 0% B). Radiochemical purity of [^68Ga]4 was >99% RCP (FIG. 1) and injected doses were stable at 2 hr after formulation.
^177Lu labeling: To 10 μg ligand (1 mg/mL DMSO) were added 15 μL of 2.0 N NaOAc, 400 μL 0.05 N HCl, and 20 μL ^177Lu-solution (780 μCi (Capintec setting 450 (reading×10)). The reaction was heated with a heating block at 95° C. for 1 hour in a 3 mL closed vial. After cooling, the sample was analyzed by HPLC (HPLC: Eclipse XDB-C18 150×4.6 mm, gradient, 1 mL/min; A: 0.1% TFA in water; B: 0.1% TFA in ACN: 0-4 min A/B 85/15%; 4-11 min: from 85/15 to 30/70%; 11-14 min: from 30/70% to 85/15%). Radiochemical purity of [^177Lu]4 (FIG. 2) and [^177Lu]7 was >98% and injected doses were stable at 48 hr after formulation.
For iv injection 150 μL of labeled solution was diluted with saline to 3.75mL. Mice were injected with 150 μL of formulated dose. Injected radioactivity was 100 μCi and PSMA ligand amount was constant at 0.72 nmole/mouse.

[2] = tested on: PC3-PIP (PSMA positive) and PC-3 tumors (PSMA negative); assay: Biodistribution of [68Ga]4 in tumor bearing nude mice; assay type: in vivo, CD-1 male nude mice
Method: as §1
For iv injection 150 μL of labeled solution was diluted with saline to 3 mL. Mice were injected with 150 μL of formulated dose. Injected radioactivity was 19-28 μCi and PSMA ligand amount was constant at 0.2 nmole/mouse.
Biodistribution of [^68Ga]4, [^177Lu]4 and [^177Lu]7 was determined in nude mice bearing PIP PC3 (PSMA positive) and PC3 (PSMA negative) tumors on the left and right shoulder, respectively, over a period of 192 h (Table 3a, 3b and 3c). […] The uptake in PC3 tumors (PSMA negative) of both ligands, [^177Lu]4 and [^177Lu]7, was clearly much lower than those of PC-3 PIP tumors (PSMA positive).

[3] = tested on: PSMA-negative cell line, PC3; assay: In vitro cell uptake, PC3 cells; assay type: cell-based; conditions: PC3 (do not express PSMA), 60 min
Method: To determine the cell uptakes of the [^177Lu] labelled ligands, 5×10^5 cells/well were grown in 12-well plates in 1 mL of medium for 48 h. The cells were washed twice with PBS, and 900 μL fresh media were added. Radiolabelled ligand was added and the PSMA-inhibitor (2-PMPA) was applied in a final concentration of 10 μM to determine unspecific binding. All samples were prepared in triplicate. Following the incubation at 37° C., cells were washed twice to remove unbound activity and afterwards lysed in 1 mL of 0.5 M NaOH. Activity was measured in a gamma counter. Aliquots of the solution added to the cells were also measured for the calculation of the cellular uptake as % ID.

[4] = tested on: PSMA-positive cell line, PIP PC3; assay: In vitro cell uptake, PIP PC3 cells; assay type: cell-based
Method: To determine the cell uptakes of the [^177Lu] labelled ligands, 5×10^5 cells/well were grown in 12-well plates in 1 mL of medium for 48 h. The cells were washed twice with PBS, and 900 μL fresh media were added. […] All samples were prepared in triplicate. Following the incubation at 37° C., cells were washed twice to remove unbound activity and afterwards lysed in 1 mL of 0.5 M NaOH. Activity was measured in a gamma counter. Aliquots of the solution added to the cells were also measured for the calculation of the cellular uptake as % ID.

O=C(O)CCC(C(=O)O)N1CCN(CC(=O)O)CCN(C(CCC(=O)NCC(=O)N[C@@H](Cc2ccc(OCC(=O)N[C@@H](Cc3ccccc3)C(=O)NCCCC[C@H](NC(=O)N[C@@H](CCC(=O)O)C(=O)O)C(=O)O)cc2)C(=O)O)C(=O)O)CCN(CC(=O)O)CC1.[68Ga] (stereo partly drawn) [[^68Ga]4]
Stability of injected doses [1]: stable
Biodistribution: Blood ([2]; 30 min): 1.22 ± 0.06 % dose/g
Biodistribution: Bone ([2]; 30 min): 0.35 ± 0.01 % dose/g
Biodistribution: Brain ([2]; 30 min): 0.04 ± 0.01 % dose/g
Biodistribution: Heart ([2]; 30 min): 0.75 ± 0.12 % dose/g
Biodistribution: Intestine ([2]; 30 min): 0.48 ± 0.12 % dose/g
Biodistribution: Kidney ([2]; 30 min): 137.36 ± 12.92 % dose/g
Biodistribution: Liver ([2]; 30 min): 3.23 ± 0.31 % dose/g
Biodistribution: Lung ([2]; 30 min): 2.46 ± 0.37 % dose/g
Biodistribution: Muscle ([2]; 30 min): 0.51 ± 0.07 % dose/g
Biodistribution: PC3-PSMA- tumor ([2]; 30 min): 1.59 ± 0.27 % dose/g
Biodistribution: PIP-PSMA+ tumor ([2]; 30 min): 12.88 ± 2.08 % dose/g
Biodistribution: Pancreas ([2]; 30 min): 1.57 ± 0.93 % dose/g
Biodistribution: Skin ([2]; 30 min): 1.71 ± 0.22 % dose/g
Biodistribution: Spleen ([2]; 30 min): 7.19 ± 1.55 % dose/g
Biodistribution: Stomach ([2]; 30 min): 0.44 ± 0.28 % dose/g
Biodistribution: Blood ([2]; 1 hr): 0.65 ± 0.08 % dose/g
Biodistribution: Bone ([2]; 1 hr): 0.17 ± 0.01 % dose/g
Biodistribution: Brain ([2]; 1 hr): 0.03 ± 0.00 % dose/g
Biodistribution: Heart ([2]; 1 hr): 0.43 ± 0.06 % dose/g
Biodistribution: Intestine ([2]; 1 hr): 0.44 ± 0.13 % dose/g
Biodistribution: Kidney ([2]; 1 hr): 166.31 ± 18.62 % dose/g
Biodistribution: Liver ([2]; 1 hr): 2.87 ± 0.30 % dose/g
Biodistribution: Lung ([2]; 1 hr): 1.52 ± 0.28 % dose/g
Biodistribution: Muscle ([2]; 1 hr): 0.21 ± 0.05 % dose/g
Biodistribution: PC3-PSMA- tumor ([2]; 1 hr): 1.14 ± 0.25 % dose/g
Biodistribution: PIP-PSMA+ tumor ([2]; 1 hr): 13.86 ± 1.54 % dose/g
Biodistribution: Pancreas ([2]; 1 hr): 0.75 ± 0.13 % dose/g
Biodistribution: Skin ([2]; 1 hr): 0.64 ± 0.26 % dose/g
Biodistribution: Spleen ([2]; 1 hr): 4.60 ± 1.80 % dose/g
Biodistribution: Stomach ([2]; 1 hr): 0.34 ± 0.19 % dose/g
Biodistribution: Blood ([2]; 2 hr): 0.53 ± 0.11 % dose/g
Biodistribution: Bone ([2]; 2 hr): 0.19 ± 0.03 % dose/g
Biodistribution: Brain ([2]; 2 hr): 0.03 ± 0.00 % dose/g
Biodistribution: Heart ([2]; 2 hr): 0.25 ± 0.04 % dose/g
Biodistribution: Intestine ([2]; 2 hr): 0.38 ± 0.04 % dose/g
Biodistribution: Kidney ([2]; 2 hr): 116.41 ± 51.94 % dose/g
Biodistribution: Liver ([2]; 2 hr): 2.54 ± 0.16 % dose/g
Biodistribution: Lung ([2]; 2 hr): 1.05 ± 0.08 % dose/g
Biodistribution: Muscle ([2]; 2 hr): 0.14 ± 0.07 % dose/g
Biodistribution: PC3-PSMA- tumor ([2]; 2 hr): 0.74 ± 0.23 % dose/g
Biodistribution: PIP-PSMA+ tumor ([2]; 2 hr): 16.74 ± 2.75 % dose/g
Biodistribution: Pancreas ([2]; 2 hr): 0.50 ± 0.15 % dose/g
Biodistribution: Skin ([2]; 2 hr): 0.62 ± 0.31 % dose/g
Biodistribution: Spleen ([2]; 2 hr): 3.41 ± 2.46 % dose/g
Biodistribution: Stomach ([2]; 2 hr): 0.20 ± 0.09 % dose/g
Tumor uptake ([2]; suitable for PET imaging): excellent tumor uptake

O=C(O)CC[C@H](NC(=O)N[C@@H](CCCCNC(=O)[C@H](Cc1ccc2ccccc2c1)NC(=O)[C@H]1CC[C@H](CNC(=O)CN2CCN(CC(=O)O)CCN(CC(=O)O)CCN(CC(=O)O)CC2)CC1)C(=O)O)C(=O)O.[177Lu] [[^177Lu]PSMA-617, reference compound]
In vitro cell uptake [3]: 0.3 % ID per 5 × 10^5 cells
In vitro cell uptake ([4]; PIP PC3, 5 min): 3.5 % ID per 5 × 10^5 cells
In vitro cell uptake ([4]; PIP PC3, 15 min): 5.8 % ID per 5 × 10^5 cells
In vitro cell uptake ([4]; PIP PC3, 30 min): 6.8 % ID per 5 × 10^5 cells
In vitro cell uptake ([4]; PIP PC3, 60 min): 8.2 % ID per 5 × 10^5 cells
In vitro cell uptake ([4]; PIP PC3, 60 min, with PSMA inhibitor (2-PMPA, 2 uM)): 1.0 % ID per 5 × 10^5 cells
In vitro cell uptake ([4]; PIP PC3, 120 min): 9.6 % ID per 5 × 10^5 cells

Source: patent US20220125959A1, “PROSTATE-SPECIFIC MEMBRANE ANTIGEN (PSMA) INHIBITORS AS DIAGNOSTIC AND RADIONUCLIDE THERAPEUTIC AGENTS” (FIVE ELEVEN PHARMA INC., priority 2019, published 2022)
